Where no end group is shown, it is not given here.
Columns and labels:
integrin α9β1 = target: T1, integrin α9β1 (Homo sapiens, UniProt P05556+Q13797); assay: Integrin α9β1-pol-C binding inhibition assay with synthetic peptides; settings: integrin α9β1 10 nM, pol-C 10 nM, 1 mM MnCl2, 10% DMSO, FIG. 15
T1 construct: A cDNA encoding the extracellular region of human integrin α9; An expression vector for the extracellular region of integrin β1; ACID coiled-coil (Velcro) peptide; FLAG; BASE coiled-coil (Velcro) peptide; made in house; host or cells: FreeStyle 293 Expression System (293-F cells)
Method: An integrin binding assay was performed as described in the above-mentioned publication Matrix Biol. 25, […], (2006). In some experiments, integrins were preincubated with synthetic peptides at various concentrations to evaluate the inhibitory activities of the synthetic peptides. The apparent dissociation constants were determined as described in Nishiuchi, R., Murayama, O., Fujiwara, H., Gu, J., Kawakami. T., Aimoto, S., Wada, Y., and Sekiguchi, K. (2003) J. Biochem, 134, 497-504.
(§1) To further corroborate the role of EDDMMEVPY as the integrin α9β1 recognition sequence, an integrin α9β1-pol-C binding inhibition assay was performed using synthetic peptides consisting of the EDDMMEVPY sequence or a part of the sequence, Integrin α9β1 (10 nM) was incubated on microtiter plates coated with pol-C (10 nM) in the presence of 1 mM MnCl2 and various concentrations of the synthetic peptides. To prevent precipitation of the peptides, the assay was performed in the presence of 10% DMSO. Based on the amount of integrin α9β1 bound to pol-C set as 100%, the relative binding amount was calculated.

[1] = target: integrin α9β1 on RD cells (human rhabdomyosarcoma cells) (human) (UniProt Q13797); assay: cell-based or functional assay
hematopoietic stem cells [2] = assay: Proliferation of hematopoietic stem cells on coated plates; type: cell-based, mouse; settings: for proliferation of hematopoietic stem cells on polydom-coated plate after peptide treatment: peptide 50 μM for 2 hours, then polydom-coated plate, FIG. 20
Method: (§2) Bone marrow cells were flushed out from the femurs and tibias of three mice of 6 to 7 weeks of age (C57BL/6J) and dissociated with a 22G needle. The cells were reacted with a biotin-labeled anti-lineage antibody for 30 minutes and subsequently with an anti-blotin antibody-conjugated magnetic beads, and lineage-positive cells were removed by automated magnetic cell sorter autoMACS (Miltenyi Biotec). After staining with PE-CD3, PE-Mac1, PE-Gr1, PE-Ter119, PE-B220, FTTC-Sca1 and APC-c-Kit, a lineage(−) Sca1(+) c-Kit (high) cell fraction was sorted out using FACSAria and used for the experiments described below.
(§3) The above-prepared cells were plated on a 48-well plate coated with a recombinant polydom protein or fibronectin. The same type of plate without coating was used as a control. The medium used was RPMI containing 10% fetal calf serum, thrombopoietin (30 ng/ml) and flt3 ligand (100 ng/ml). For the examination of cell proliferation, the cells were plated in duplicate wells for each coating at 1000 cells/well and started to be cultured, and the cell number was counted at the start of culture, and on day 2 and day 3. The remaining cells were divided into three aliquots, plated in wells for each coating, and subjected to FACS analysis on day 3 after the start of culture. For the FACS analysis, staining with an antibody cocktail containing PE-CD3, PE-Mac1, PE-Gr1, PE-Ter119, PE-B220, FITC-Sca1 and APC-c-Kit was performed and FACSCont was used.
The above-prepared cells were divided into three groups and plated on 48-well plates at 5000 cells/well. The medium used was RPMI containing 10% fetal calf serum, thrombopoietin (30 ng/ml) and flt3 ligand (100 ng/ml). For an EDDMMEVPY peptide treatment group, 2 μl of the peptide was added to each well at the final concentration of 50 μM, and for the other two groups, 2 μl of PBS was added to each well. Then, the culture was performed at […] for 2 hours. Subsequently, the cells were transferred to 48-well plates coated with a recombinant polydom protein or fibronectin. The cells cultured in the presence of the peptide were transferred to the recombinant polydom protein-coated plate, and the cells in one of the other two groups were transferred to the recombinant polydom protein-coated plate, and the cells in the remaining group were transferred to the fibronectin-coated plate. The culture was continued for 3 days and the cell numbers were counted on day 2, day 3 and […].

hematopoietic stem cells [3] = assay: FACS analysis of differentiation of hematopoietic stem cells on coated wells; type: cell-based, mouse; settings: day 3 of culture on coated well, FIG. 19
Method: as §2, §3

cardiac stem cells [4] = assay: Cell adhesion assay using GFP label-retaining cells (cardiac stem cells); type: cell-based, mouse; settings: 100 nM coating, 12 hours, serum-free IMDM, FIG. 25
Text: (§4) Tissue stem cells are known to generally have a very prolonged, cell cycle and thus allow labeling compounds incorporated into DNA and the cell interior to remain stable for a long period of time without decay along with cell division, This nature can be advantageously used to identify and separate tissue stem cells by short-term labeling or cells with a nucleotide analog such as bromodeoxyuridine (BrdU) or a fusion protein of green fluorescent protein (hereinafter referred to as “GFP”) and a nucleoprotein, histone, followed by selection of cells retaining the label for a long period of time (label-retaining cells). In this experiment, with the use of a tetracycline-inducible expression system in combination with the ROSA26 promoter, a fusion protein of GFP and histone H2B (H2B-GFP) was expressed in the heart of a mouse for 2 weeks starting 1 week before birth, and 6 weeks later, cardiac stem cells were separated as GFP label-retaining cells from the heart.
To explore whether polydom serves as a scaffold for integrin α9β1-expressing cardiac stem cells, cardiac stem cells were separated as GFP label-retaining cells and subjected to a cell adhesion assay. A 96-well immuno plate (Nunc Maxisorp) was coated with 50 μl/well of 100 nM polydom or fibronectin at 4° C. overnight, GFP label-retaining cells were collected by FACSAria and suspended at 1×10^6 cells/ml in serum-free Iscove's Modified Dulbecco Medium (hereinafter referred to as “IMDM”). The cell suspension was plated at 100 μl/well and cultured in a 5% CO2 incubator at 37° C. for 12 hours. After three washes with PBS, the cells were fixed with 100 μl/well of 3.7% formalin for 15 minutes. Then, the cells were incubated with 0.5% toluidine blue (150 μl/well) for 10 minutes and washed with MilliQ water. After drying, the number of attached cells was counted under a microscope.

cardiac stem cells [5] = assay: Colony forming ability of GFP label-retaining cells (cardiac stem cells); type: cell-based, mouse; settings: 100 nM coating, 1×10^4 cells/well, 2 weeks, FIG. 26
Text: as §4
To explore whether cardiac stem cells proliferate on a polydom-coated plate, colony formation was measured, as an indicator of proliferation. A Falcon 6-well plate was coated with 800 μl/well of 100 nM polydom or fibronectin at 4° C. overnight. GFP label-retaining cells were collected by FACSAria and suspended in IMDM containing 10% fetal calf serum. […] After drying, the number of colonies was counted under a microscope.

[6] = target: recombinant integrin α9β1 (human, UniProt Q13797 30-981; P05556 21-728); assay: inhibition of integrin α9β1 (10 nM) binding to coated pol-C (10 nM) by synthetic peptide, 1 mM MnCl2, 10% DMSO
Method: as §1, with “EDDMMEVPY” left out, “MnCl₂” for “MnCl2”

Chain of recombinant integrin α9β1 (Q13797 30-981, chain 1 of 2): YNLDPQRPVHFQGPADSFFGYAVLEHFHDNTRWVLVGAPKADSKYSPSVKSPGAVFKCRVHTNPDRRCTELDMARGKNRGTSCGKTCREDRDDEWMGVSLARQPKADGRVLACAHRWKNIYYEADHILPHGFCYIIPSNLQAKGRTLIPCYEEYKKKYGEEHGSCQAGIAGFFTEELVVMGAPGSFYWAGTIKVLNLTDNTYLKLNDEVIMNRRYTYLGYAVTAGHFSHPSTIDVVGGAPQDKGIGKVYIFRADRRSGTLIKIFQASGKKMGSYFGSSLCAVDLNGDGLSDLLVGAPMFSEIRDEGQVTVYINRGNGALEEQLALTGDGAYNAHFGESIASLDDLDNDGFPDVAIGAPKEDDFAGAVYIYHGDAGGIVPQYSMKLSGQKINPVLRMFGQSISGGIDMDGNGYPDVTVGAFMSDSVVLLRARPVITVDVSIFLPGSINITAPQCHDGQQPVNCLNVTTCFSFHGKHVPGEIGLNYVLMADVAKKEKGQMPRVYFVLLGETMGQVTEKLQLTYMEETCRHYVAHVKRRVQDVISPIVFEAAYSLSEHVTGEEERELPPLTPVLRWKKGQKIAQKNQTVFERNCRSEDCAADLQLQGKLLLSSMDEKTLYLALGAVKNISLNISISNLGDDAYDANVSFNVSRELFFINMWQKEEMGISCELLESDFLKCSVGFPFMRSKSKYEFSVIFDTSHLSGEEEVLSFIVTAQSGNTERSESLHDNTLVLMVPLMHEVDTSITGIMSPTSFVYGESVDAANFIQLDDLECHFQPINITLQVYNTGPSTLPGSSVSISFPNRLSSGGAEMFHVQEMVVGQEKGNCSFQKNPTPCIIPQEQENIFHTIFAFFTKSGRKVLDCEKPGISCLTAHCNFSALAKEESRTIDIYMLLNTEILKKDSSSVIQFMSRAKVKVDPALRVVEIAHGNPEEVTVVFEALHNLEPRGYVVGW
Chain of recombinant integrin α9β1 (P05556 21-728, chain 2 of 2): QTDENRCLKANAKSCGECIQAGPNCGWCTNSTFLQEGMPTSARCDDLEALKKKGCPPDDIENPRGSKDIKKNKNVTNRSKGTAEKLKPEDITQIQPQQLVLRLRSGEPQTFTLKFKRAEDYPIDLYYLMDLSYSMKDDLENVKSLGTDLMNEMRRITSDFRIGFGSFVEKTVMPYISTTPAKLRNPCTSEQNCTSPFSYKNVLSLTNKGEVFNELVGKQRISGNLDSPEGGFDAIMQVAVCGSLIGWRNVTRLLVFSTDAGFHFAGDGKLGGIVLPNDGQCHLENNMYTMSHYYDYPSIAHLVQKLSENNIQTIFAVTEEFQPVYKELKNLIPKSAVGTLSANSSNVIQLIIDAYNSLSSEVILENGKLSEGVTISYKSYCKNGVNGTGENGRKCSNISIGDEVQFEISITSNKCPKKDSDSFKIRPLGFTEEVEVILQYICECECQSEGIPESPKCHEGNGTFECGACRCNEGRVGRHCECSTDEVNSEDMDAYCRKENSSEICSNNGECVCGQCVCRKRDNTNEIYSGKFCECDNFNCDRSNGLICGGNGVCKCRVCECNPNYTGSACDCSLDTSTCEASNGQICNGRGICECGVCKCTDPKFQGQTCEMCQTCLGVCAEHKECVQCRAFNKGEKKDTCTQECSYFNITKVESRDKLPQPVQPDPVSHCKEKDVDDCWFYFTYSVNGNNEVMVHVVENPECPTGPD
T1 sequence (Q13797 30-981 limits assumed): as the sequence (Q13797 30-981, chain 1 of 2) above
T1 sequence (P05556 21-728 limits assumed): as the sequence (P05556 21-728, chain 2 of 2) above
Chain of integrin α9β1 on RD cells (human rhabdomyosarcoma cells) (human) (Q13797 30-1035, chain 1 of 2): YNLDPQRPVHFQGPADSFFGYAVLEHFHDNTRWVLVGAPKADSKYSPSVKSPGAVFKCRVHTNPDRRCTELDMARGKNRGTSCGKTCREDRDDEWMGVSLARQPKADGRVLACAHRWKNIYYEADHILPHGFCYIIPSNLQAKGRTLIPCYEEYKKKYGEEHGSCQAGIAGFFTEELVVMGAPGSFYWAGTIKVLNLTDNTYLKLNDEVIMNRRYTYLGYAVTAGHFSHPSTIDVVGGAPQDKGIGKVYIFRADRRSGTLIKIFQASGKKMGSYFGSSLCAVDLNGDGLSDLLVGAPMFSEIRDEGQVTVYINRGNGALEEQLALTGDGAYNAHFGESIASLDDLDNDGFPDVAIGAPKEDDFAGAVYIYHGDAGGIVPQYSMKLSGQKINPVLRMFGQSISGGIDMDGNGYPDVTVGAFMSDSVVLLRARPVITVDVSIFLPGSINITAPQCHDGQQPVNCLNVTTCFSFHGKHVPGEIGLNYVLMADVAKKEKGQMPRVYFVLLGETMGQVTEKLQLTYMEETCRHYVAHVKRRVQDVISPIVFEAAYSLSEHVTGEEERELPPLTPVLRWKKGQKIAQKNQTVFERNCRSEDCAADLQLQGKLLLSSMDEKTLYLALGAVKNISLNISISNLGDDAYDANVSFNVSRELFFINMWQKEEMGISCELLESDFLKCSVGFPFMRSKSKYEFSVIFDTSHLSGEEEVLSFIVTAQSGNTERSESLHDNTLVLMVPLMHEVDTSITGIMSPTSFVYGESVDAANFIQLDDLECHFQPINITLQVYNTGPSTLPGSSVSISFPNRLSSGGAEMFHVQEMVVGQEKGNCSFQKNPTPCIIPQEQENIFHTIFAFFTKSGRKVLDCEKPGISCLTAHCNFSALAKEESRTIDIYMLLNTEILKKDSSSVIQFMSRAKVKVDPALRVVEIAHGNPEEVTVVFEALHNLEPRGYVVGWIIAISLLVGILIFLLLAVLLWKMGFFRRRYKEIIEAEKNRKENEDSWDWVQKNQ
Chain of integrin α9β1 on RD cells (human rhabdomyosarcoma cells) (human) (P05556 21-798, chain 2 of 2, further chain): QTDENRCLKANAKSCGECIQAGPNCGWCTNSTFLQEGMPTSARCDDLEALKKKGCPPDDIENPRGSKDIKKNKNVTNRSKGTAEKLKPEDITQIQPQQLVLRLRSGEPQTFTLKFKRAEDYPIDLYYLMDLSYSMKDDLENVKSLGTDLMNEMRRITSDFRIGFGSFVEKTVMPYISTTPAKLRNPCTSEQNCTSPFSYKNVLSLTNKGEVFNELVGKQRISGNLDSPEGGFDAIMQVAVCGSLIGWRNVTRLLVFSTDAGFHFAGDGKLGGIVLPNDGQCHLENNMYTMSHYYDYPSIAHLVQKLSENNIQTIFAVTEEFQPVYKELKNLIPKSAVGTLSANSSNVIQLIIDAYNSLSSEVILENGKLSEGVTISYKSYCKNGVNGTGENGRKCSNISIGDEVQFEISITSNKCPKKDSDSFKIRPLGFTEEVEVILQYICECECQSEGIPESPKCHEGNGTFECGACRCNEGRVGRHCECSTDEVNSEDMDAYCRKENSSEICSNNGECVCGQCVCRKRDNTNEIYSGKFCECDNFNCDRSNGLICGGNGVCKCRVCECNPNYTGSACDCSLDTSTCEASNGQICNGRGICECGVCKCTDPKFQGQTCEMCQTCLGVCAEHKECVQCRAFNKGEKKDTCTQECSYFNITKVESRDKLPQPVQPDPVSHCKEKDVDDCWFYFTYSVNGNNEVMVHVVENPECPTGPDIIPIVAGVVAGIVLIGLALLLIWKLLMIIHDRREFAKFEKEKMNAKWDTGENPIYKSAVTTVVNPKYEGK

TYSSPEDGIHE [reference compound]
inhibitory potency toward binding of integrin α9β1 to pol-C (integrin α9β1): barely inhibitory

full-length polydom (recombinant mouse SVEP1) (from UniProt A2AVA0 18-3567) (ligand)
adhesion of RD cells to coated full-length polydom [1]: 3 µg/mL

fibronectin [reference compound]
proliferation of hematopoietic stem cells on coated wells (hematopoietic stem cells [2]; 1000 cells/well, counted to day 3, versus uncoated control, FIG. 18): proliferated as with the control | proliferation of hematopoietic stem cells on coated plate after PBS pretreatment (hematopoietic stem cells [2]; 5000 cells/well, counted day 2 to day 4, FIG. 20): proliferated | expression of c-Kit on hematopoietic stem cells (hematopoietic stem cells [3]): increased expression of c-Kit | adhesion of cardiac stem cells to coated plate (cardiac stem cells [4]): a large number of the cells adhered | colony forming activity (colony count relative to the number of cells plated) (cardiac stem cells [5]): about 0.4%

DMMEVPY
inhibitory potency toward binding of integrin α9β1 to pol-C (integrin α9β1): nearly as potent as EDDMMEVPY

EDDMMEVPY [EDDMMEVPY]
proliferation of hematopoietic stem cells on polydom-coated plate after peptide treatment (hematopoietic stem cells [2]; listed as EDDMMEVPY peptide): proliferate albeit more slowly than the cells on the fibronectin-coated plate | proliferation of hematopoietic stem cells on polydom-coated plate after peptide treatment (hematopoietic stem cells [2]; listed as peptide consisting of the amino acid sequence represented by SEQ ID NO: 1): canceled

AEIDGIEL [AEIDGIEL peptide (integrin α9β1 recognition sequence in tenascin-C, synthetic)]
IC50 [6]: 7.8 µM

B1: EDDMMEVPY peptide (synthetic) (peptide)
peptide: EDDMMEVPY
notes: Corresponds to Glu2636-Tyr2644 of mouse SVEP1
IC50 [6]: 0.18 µM

Reference: US20150086557A1, “NOVEL INTEGRIN alpha9 beta1 LIGAND AND USES THEREOF” (OSAKA UNIVERSITY, priority 2012, published 2015)
